Test results: patent publication EP1203770A1 (priority 1992, dated 1994)

Target: T1, HIV-1 protease (Human immunodeficiency virus type 1 group M subtype B, UniProt P04585)
T1 construct: The protease (or proteinase), consisting of only 99 amino acids, is among the smallest enzymes known
Test: In vitro HIV protease inhibitory assay (HIV Protease FITC Assay)
Assay type: biochemical
Details: for inhibition at 0.41 µM: HIV-1 Dose 0.410 uM; for inhibition at 1.23 µM: HIV-1 Dose 1.230 uM; for inhibition at 3.7 µM: HIV-1 Dose 3.700 uM; for inhibition at 11 µM: HIV-1 Dose 11.000 uM; for inhibition at 33 µM: HIV-1 Dose 33.000 uM; for inhibition at 100 µM: HIV-1 Dose 100.000 uM; for inhibition at 10 µM: HIV-1 Dose 10.000 uM; for Ki: read-out: HIV-1 FITC Ki; for inhibition at 1 µM: HIV-1 Dose 1.000 uM
Method: The HIV protease screening assay is based on a fluorescently labeled substrate which can be resolved from nonlabeled cleavage product using avidin-polystyrene particles, 0.7-0.9 µm. The substrate is biotinylated at the amino terminal arginine and fluorescently labeled with fluorescein isothiocynate (FITC) at the carboxyl terminal lysine. […] Substrate (20 µl of 0.2 µM), sample (10 µl of desired concentraion), and enzyme (10 µl of 0.1 µM) are added to a 96 well pandex plate. The assay is run in 0.1 M sodium acetate buffer at pH 5.5 in the presence of 1.0 M sodium chloride and 0.05% NP-40 and incubated in the dark for one hour at room temperature. Avidin coated polystyrene beads {40 µl of 0.1% (w/v)} are added and the incubation is continued in the dark for an additional half hour. The labeled cleavage product is separated from the unreacted substrate via filtration and is read on the Idexx Screen Machine. The data are analyzed by appropriate computer algorithms to ascertain percent inhibition values.

[1] = read-out: HIV-1 Protease % Inhib

CCC(Cc1ccccc1)c1cc(O)c(C(c2cccc(NC(=O)OCc3ccccc3)c2)C2CC2)c(=O)o1 (stereo not drawn) [Example 36, 3-(α-Cyclopropyl-meta-(benzyloxycarbonylamino)benzyl)-6-(α-ethyl-phenethyl)-4-hydroxy-2H-pyran-2-one]
inhibition at 0.41 µM [1]: < 10%
inhibition at 1.23 µM [1]: 13.7%
inhibition at 3.7 µM [1]: 43.4%
inhibition at 11 µM [1]: 73.7%
inhibition at 33 µM [1]: 77.2%
inhibition at 100 µM [1]: 87.5%

O=C(CCn1ccc2ccccc21)Nc1cccc(C(c2c(O)cc(C(CC3CC3)CC3CC3)oc2=O)C2CC2)c1 (stereo not shown) [Example 39, N-(3-(Cyclopropyl-[6-(2-cyclopropyl-1-cyclopropylmethyl-ethyl)-4-hydroxy-2-oxo-2H-pyran-3-yl]-methyl)-phenyl)-3-indol-1-yl-propionamide]
inhibition at 0.123 µM (HIV-1 Dose 0.123 uM, read-out: HIV-1 Protease % Inhib): < 10%
inhibition at 0.37 µM (HIV-1 Dose 0.370 uM, read-out: HIV-1 Protease % Inhib): 24.8%
inhibition at 1.1 µM (HIV-1 Dose 1.100 uM, read-out: HIV-1 Protease % Inhib): 60.6%
inhibition at 3.3 µM (HIV-1 Dose 3.300 uM, read-out: HIV-1 Protease % Inhib): 86.3%
inhibition at 10 µM [1]: 91.8%
inhibition at 30 µM (HIV-1 Dose 30.000 uM, read-out: HIV-1 Protease % Inhib): 94.5%
Ki: 0.096 µM

CCCC(CCC)c1cc(O)c(C(CC)c2ccccc2)c(=O)o1 (stereo not shown) [Example 40, 4-Hydroxy-3-(1-phenyl-propyl)-6-(1-propyl-butyl)-pyran-2-one]
inhibition at 1 µM [1]: 37.2%
inhibition at 10 µM [1]: 79.5%
inhibition at 100 µM [1]: 80%

C=CC(c1ccccc1)c1c(O)cc(C(CCC)CCC)oc1=O (stereo not shown) [Example 41, 4-Hydroxy-3-(1-phenyl-allyl)-6-(1-propyl-butyl)-pyran-2-one]
inhibition at 1 µM [1]: 21.2%
inhibition at 10 µM [1]: 65.9%
inhibition at 100 µM [1]: 80.9%

CC(C)(C)OC(=O)CCc1cc(O)c(C(c2ccccc2)C2CC2)c(=O)o1 (stereo not shown) [Example 42, 3-(5-(Cyclopropyl-phenyl-methyl)-4-hydroxy-6-oxo-6H-pyran-2-yl)-propionic acid tert-butyl ester]
inhibition at 1 µM [1]: 19.7%
inhibition at 10 µM [1]: 74.7%
inhibition at 100 µM [1]: 105%
Ki: 0.52 µM

Cc1noc(C)c1CCc1cc(O)c(C(c2ccccc2)C2CC2)c(=O)o1 (stereo not shown) [Example 43, 3-(Cyclopropyl-phenyl-methyl)-6-(2-(3,5-dimethyl-isoxazol-4-yl)-ethyl)-4-hydroxy-pyran-2-one]
inhibition at 1 µM [1]: 44.6%
inhibition at 10 µM [1]: 89.4%
inhibition at 100 µM [1]: 97.3%
Ki: 0.46 µM

CC(C)(C)c1nc(CCc2cc(O)c(C(c3ccccc3)C3CC3)c(=O)o2)no1 (stereo not shown) [Example 44, 6-(2-(5-Tert-butyl-(1,2,4)oxadiazol-3-yl)-ethyl)-3-(cyclopropyl-phenyl-methyl)-4-hydroxy-pyran-2-one]
inhibition at 0.41 µM [1]: < 10%
inhibition at 1.23 µM [1]: 24.9%
inhibition at 3.7 µM [1]: 57.3%
inhibition at 11 µM [1]: 84.3%
inhibition at 33 µM [1]: 106%
inhibition at 100 µM [1]: 114%
Ki: 1.84 µM

CCC(CC1CCOC1)c1cc(O)c(C(c2ccccc2)C2CC2)c(=O)o1 (stereo not shown) [Example 45, 3-(Cyclopropyl-phenyl-methyl)-4-hydroxy-6-(1-(tetrahydro-furan-3-ylmethyl)-propyl)-pyran-2-one]
inhibition at 0.41 µM [1]: 79.3%
inhibition at 1.23 µM [1]: 94.4%
inhibition at 3.7 µM [1]: 101%
inhibition at 11 µM [1]: 103%
inhibition at 33 µM [1]: 114%
inhibition at 100 µM [1]: 116%
Ki: 0.053 µM

O=c1oc(C(Cc2ccccc2)Cc2ccccn2)cc(O)c1C(c1ccccc1)C1CC1 (stereo not shown) [Example 46, 3-(Cyclopropyl-phenyl-methyl)-4-hydroxy-6-(2-phenyl-1-pyridin-2-ylmethyl-ethyl)-pyran-2-one]
inhibition at 0.41 µM [1]: 29.2%
inhibition at 1.23 µM [1]: 65%
inhibition at 3.7 µM [1]: 91.6%
inhibition at 11 µM [1]: 94.2%
inhibition at 33 µM [1]: 103%
inhibition at 100 µM [1]: 115%
Ki: 0.313 µM

O=c1oc(CCC2OCCO2)cc(O)c1C(c1ccccc1)C1CC1 (stereo not shown) [Example 47, 3-(Cyclopropyl-phenyl-methyl)-6-(2-(1,3)dioxolan-2-yl-ethyl)-4-hydroxy-pyran-2-one]
inhibition at 0.41 µM [1]: < 10%
inhibition at 1.23 µM [1]: 19.4%
inhibition at 3.7 µM [1]: 50%
inhibition at 11 µM [1]: 73.2%
inhibition at 33 µM [1]: 91.3%
inhibition at 100 µM [1]: 107%
Ki: 0.505 µM

O=c1oc(CCCCN2CCOCC2)cc(O)c1C(c1ccccc1)C1CC1 (stereo not shown) [Example 48, 3-(Cyclopropyl-phenyl-methyl)-4-hydroxy-6-(4-morpholin-4-yl-butyl)-pyran-2-one]
inhibition at 0.41 µM [1]: < 10%
inhibition at 1.23 µM [1]: < 10%
inhibition at 3.7 µM [1]: < 10%
inhibition at 11 µM [1]: < 10%
inhibition at 33 µM [1]: 31.3%
inhibition at 100 µM [1]: 61.6%

O=c1oc(CCc2ccccn2)cc(O)c1C(c1ccccc1)C1CC1 (stereo not shown) [Example 49, 3-(Cyclopropyl-phenyl-methyl)-4-hydroxy-6-(2-pyridin-2-yl-ethyl)-pyran-2-one]
inhibition at 0.41 µM [1]: < 10%
inhibition at 1.23 µM [1]: 24.6%
inhibition at 3.7 µM [1]: 52.3%
inhibition at 11 µM [1]: 80%
inhibition at 33 µM [1]: 93.7%
inhibition at 100 µM [1]: 98.3%
Ki: 0.425 µM

Cc1nc(CCc2cc(O)c(C(c3ccccc3)C3CC3)c(=O)o2)cs1 (stereo not shown) [Example 50, 3-(Cyclopropyl-phenyl-methyl)-4-hydroxy-6-(2-(2-methyl-thiazol-4-yl)-ethyl)-pyran-2-one]
inhibition at 0.41 µM [1]: < 10%
inhibition at 1.23 µM [1]: 22.1%
inhibition at 3.7 µM [1]: 55.5%
inhibition at 11 µM [1]: 80.5%
inhibition at 33 µM [1]: 96%
inhibition at 100 µM [1]: 106%
Ki: 0.353 µM

O=c1oc(CCc2ccc3ccccc3n2)cc(O)c1C(c1ccccc1)C1CC1 (stereo not shown) [Example 51, 3-(Cyclopropyl-phenyl-methyl)-4-hydroxy-6-(2-quinolin-2-yl-ethyl)-pyran-2-one]
inhibition at 0.41 µM [1]: < 10%
inhibition at 1.23 µM [1]: < 10%
inhibition at 3.7 µM [1]: 23.4%
inhibition at 11 µM [1]: 50.7%
inhibition at 33 µM [1]: 70%
inhibition at 100 µM [1]: 83.7%

CCC(Cc1ccc(Cl)s1)c1cc(O)c(C(c2ccccc2)C2CC2)c(=O)o1 (stereo not shown) [Example 52, 6-(1-(5-Chloro-thiophen-2-ylmethyl)-propyl)-3-(cyclopropyl-phenyl-methyl)-4-hydroxy-pyran-2-one]
inhibition at 0.41 µM [1]: 66.6%
inhibition at 1.23 µM [1]: 86.2%
inhibition at 3.7 µM [1]: 106%
inhibition at 11 µM [1]: 112%
inhibition at 33 µM [1]: 116%
inhibition at 100 µM [1]: 113%
Ki: 0.043 µM

O=c1oc(CCCCl)cc(O)c1C(c1ccccc1)C1CC1 (stereo not shown) [Example 53, 6-(3-Chloro-propyl)3-(cyclopropyl-phenyl-methyl)-4-hydroxy-pyran-2-one]
inhibition at 0.41 µM [1]: 19.4%
inhibition at 1.23 µM [1]: 47.5%
inhibition at 3.7 µM [1]: 86%
inhibition at 11 µM [1]: 102%
inhibition at 33 µM [1]: 117%
inhibition at 100 µM [1]: 120%
Ki: 0.22 µM

CCC(Cc1c(C)noc1C)c1cc(O)c(C(c2ccccc2)C2CC2)c(=O)o1 (stereo not shown) [Example 54, 3-(Cyclopropyl-phenyl-methyl)-6(1-(3,5-dimethyl-isoxazol-4-ylmethyl)-propyl)-4-hydroxy-pyran-2-one]
inhibition at 0.41 µM [1]: 85%
inhibition at 1.23 µM [1]: 95.8%
inhibition at 3.7 µM [1]: 109%
inhibition at 11 µM [1]: 113%
inhibition at 33 µM [1]: 117%
inhibition at 100 µM [1]: 100%
Ki: 0.072 µM

CCC(Cc1csc(-c2ccc(Cl)cc2)n1)c1cc(O)c(C(c2ccccc2)C2CC2)c(=O)o1 (stereo not shown) [Example 55, 6-(1-(2-(4-Chloro-phenyl)-thiazol-4-ylmethyl)-propyl)-3-(cyclopropyl-phenyl-methyl)-4-hydroxy-pyran-2-one]
inhibition at 0.41 µM [1]: < 10%
inhibition at 1.23 µM [1]: 24.1%
inhibition at 3.7 µM [1]: 59.6%
inhibition at 11 µM [1]: 92.1%
inhibition at 33 µM [1]: 89.6%
inhibition at 100 µM [1]: 102%
Ki: 0.578 µM

CCC(CC1CCCO1)c1cc(O)c(C(c2ccccc2)C2CC2)c(=O)o1 (stereo not shown) [Example 56, 3-(Cyclopropyl-phenyl-methyl)-4-hydroxy-6-(1-(tetrahydro-furan-2-ylmethyl)-propyl)-pyran-2-one]
inhibition at 0.41 µM [1]: 92.6%
inhibition at 1.23 µM [1]: 97.7%
inhibition at 3.7 µM [1]: 106%
inhibition at 11 µM [1]: 117%
inhibition at 33 µM [1]: 119%
inhibition at 100 µM [1]: 109%
Ki: 0.037 µM

CCC(Cc1cccs1)c1cc(O)c(C(c2ccccc2)C2CC2)c(=O)o1 (stereo not shown) [Example 57, 3-(Cyclopropyi-phenyl-methyl)-4-hydroxy-6-(1-thiophen-2-ylmethyl-propyl)-pyran-2-one]
inhibition at 0.41 µM [1]: 76.7%
inhibition at 1.23 µM [1]: 89.4%
inhibition at 3.7 µM [1]: 103%
inhibition at 11 µM [1]: 108%
inhibition at 33 µM [1]: 114%
inhibition at 100 µM [1]: 116%
Ki: 0.063 µM

CCC(CC1CCOCC1)c1cc(O)c(C(c2ccccc2)C2CC2)c(=O)o1 (stereo not shown) [Example 58]
inhibition at 0.41 µM [1]: 74.5%
inhibition at 1.23 µM [1]: 91.1%
inhibition at 3.7 µM [1]: 107%
inhibition at 11 µM [1]: 108%
inhibition at 33 µM [1]: 115%
inhibition at 100 µM [1]: 110%
Ki: 0.048 µM
